Here are results for six compounds from ChEMBL document CHEMBL1140952 (J Med Chem, 2009).

A short description of assay [1]: Antiproliferative activity against Met-dependent human GTL16 cells after 72 hrs by MTS assay. The note with it: GTL 16, 72 h. Format: functional, cell-based.
For assay [2], the target named is Hepatocyte growth factor receptor (Homo sapiens, UniProt P08581). The assay can be described thus: Inhibition of MET.
Sequence of Hepatocyte growth factor receptor (P08581 whole entry): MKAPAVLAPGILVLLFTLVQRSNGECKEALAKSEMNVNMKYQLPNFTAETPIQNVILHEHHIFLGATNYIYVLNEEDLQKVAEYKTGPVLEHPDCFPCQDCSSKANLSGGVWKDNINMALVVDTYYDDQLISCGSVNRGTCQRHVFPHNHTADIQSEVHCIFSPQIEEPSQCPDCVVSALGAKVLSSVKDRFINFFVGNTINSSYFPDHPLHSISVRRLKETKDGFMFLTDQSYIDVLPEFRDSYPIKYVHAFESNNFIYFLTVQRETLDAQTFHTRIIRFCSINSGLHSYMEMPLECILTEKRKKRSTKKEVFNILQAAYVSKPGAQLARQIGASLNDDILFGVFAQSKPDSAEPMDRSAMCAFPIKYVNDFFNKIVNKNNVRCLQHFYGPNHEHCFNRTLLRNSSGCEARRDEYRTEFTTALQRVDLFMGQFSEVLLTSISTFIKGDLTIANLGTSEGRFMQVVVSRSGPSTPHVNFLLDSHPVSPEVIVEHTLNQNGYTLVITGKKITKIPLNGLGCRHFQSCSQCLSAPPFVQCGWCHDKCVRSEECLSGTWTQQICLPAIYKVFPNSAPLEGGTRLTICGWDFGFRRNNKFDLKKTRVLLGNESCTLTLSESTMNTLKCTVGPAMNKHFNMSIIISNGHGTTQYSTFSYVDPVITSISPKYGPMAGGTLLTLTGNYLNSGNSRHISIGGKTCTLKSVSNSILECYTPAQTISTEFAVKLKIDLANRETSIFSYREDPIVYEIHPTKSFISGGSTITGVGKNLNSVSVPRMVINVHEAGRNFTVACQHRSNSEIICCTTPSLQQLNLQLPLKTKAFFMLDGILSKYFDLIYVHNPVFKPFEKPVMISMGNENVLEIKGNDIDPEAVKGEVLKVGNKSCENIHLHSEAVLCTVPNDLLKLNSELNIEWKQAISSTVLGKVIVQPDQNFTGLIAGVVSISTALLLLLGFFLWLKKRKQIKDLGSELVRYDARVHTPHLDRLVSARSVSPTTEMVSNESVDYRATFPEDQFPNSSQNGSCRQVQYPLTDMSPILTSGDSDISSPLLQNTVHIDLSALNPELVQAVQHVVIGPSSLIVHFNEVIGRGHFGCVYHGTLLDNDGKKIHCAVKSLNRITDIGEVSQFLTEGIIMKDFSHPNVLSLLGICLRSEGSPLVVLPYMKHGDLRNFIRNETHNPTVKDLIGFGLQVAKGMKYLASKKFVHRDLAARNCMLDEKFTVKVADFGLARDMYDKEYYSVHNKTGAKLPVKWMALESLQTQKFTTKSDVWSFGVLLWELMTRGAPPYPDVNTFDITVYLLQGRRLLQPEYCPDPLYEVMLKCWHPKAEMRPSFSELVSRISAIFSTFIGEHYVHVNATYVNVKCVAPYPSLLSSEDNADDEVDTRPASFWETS

Take `Nc1nccc(Oc2ccc(NC(=O)c3cccn(-c4ccc(F)cc4)c3=O)cc2F)c1CO`: the IC50 (in general, the concentration that gives 50% inhibition) in assay [1] is 280 nM; in assay [2], 3.4 nM.

Take `NCC#Cc1c(Oc2ccc(NC(=O)c3cccn(-c4ccc(F)cc4)c3=O)cc2F)ccnc1N`: the figures for the half-inhibitory concentration (IC50) in assay [1] and in assay [2] were 210 nM and 3.8 nM, respectively.

As to `Nc1cc(Oc2ccc(NC(=O)c3cccn(-c4ccc(F)cc4)c3=O)cc2F)ccn1`, the concentration for half-maximal inhibition (IC50) in assay [1] stood at 170 nM; in assay [2], 4.5 nM.

Turning to `Nc1nccc(Oc2ccc(NC(=O)c3c(OCCO)ccn(-c4ccc(F)cc4)c3=O)cc2F)c1Cl`, the values for the IC50 in assay [1] and in assay [2] were 250 nM and 2.6 nM, respectively.

In the case of `O=C(Nc1ccc(Oc2ccnc3[nH]ccc23)c(F)c1)c1cccn(-c2ccc(F)cc2)c1=O`, 60 nM corresponded to half-maximal inhibition in assay [1] (IC50).

In the case of `CC(C)Oc1ccn(-c2ccc(F)cc2)c(=O)c1C(=O)Nc1ccc(Oc2ccnc(N)c2Cl)c(F)c1`, the figures for the half-maximal inhibitory concentration (IC50) in assay [1] and in assay [2] were 140 nM and 3.2 nM, respectively.
